Data taken from article PMC5532363, “Synergistic blending of high-valued heterocycles inhibits growth of Plasmodium falciparum in culture and P. berghei infection in mouse model” (Scientific Reports, 2017).
Where two headings read alike, the source gives them in different places.

Assays:
[1] = test system: P. falciparum 3D7 (Pf3D7), CQ sensitive; test: SYBR Green I growth inhibition assay, asynchronous P. falciparum 3D7 culture; type: cell-based, Plasmodium falciparum; conditions: SYBR Green, mean of three experiments, NDR / No IC50 = no dose response
Excerpt: (§1) Antimalarial activity of all the listed Pht analogues was initially assessed on asynchronous cultures of P. falciparum 3D7 (Pf3D7) clone using the SYBR Green assay. […] The mean IC50 values are based on three separate experiments (Table 1).
(§2) The laboratory-adapted P. falciparum strains 3D7 (Africa; CQ sensitive) and W2 (Africa; CQ resistant), were acquired from Malaria Research and Reference Reagent Resource Center (MR4) (Manassas, VA, USA) and maintained with type O +ve erythrocytes suspended in continuous complete culture medium as described. Complete culture media consisted of 10.43 g/litre of RPMI 1640-HEPES supplemented with 10% (vol/vol) human AB serum, 92.6 mg/litre L-glutamine, 50 mg/liter hypoxanthine, 2 g/litre sodium bicarbonate (Sigma-Aldrich, St. Louis, MO). Incubation of cultures was at 37 °C and maintained in a low oxygen atmosphere (5% O2, 5% CO2, 90% N). The levels of parasitemia in the cultures were maintained at between 2 and 10%, with 5% hematocrit. Media was changed after every 24 hours and parasitemia monitored every 48 hours. Synchronous cultures were prepared by sorbitol lysis. Stock solutions of the Pht, Pht analogues, and DHA were prepared in absolute dimethyl sulfoxide (DMSO) while CQ was prepared in distilled water. The prepared drug stock solutions were used immediately or stored at −80 °C for not longer than one month before use. Stock solutions were further diluted in serum free RPMI 1640 media (stock solution solvent final conc. 0.05%) before performing a 2-fold serial dilution to achieve dose ranges of 0.2 µM to 100 µM (Pht and derivatives), 7.8 to 2,000 nM (CQ) and 0.17 to 87.5 nM (DHA). 25 μL of the drug diluents were aliquoted into 96 well plates and used immediately. Alternatively, the stock solutions were diluted in distilled water, 2-fold serial dilution performed on a 96 well plate and allowed to air dry in a laminar flow hood after which dried plates were stored at 4 °C until use. SYBR Green I assay technique with additional modification was used for drug susceptibility testing of the parasites. Parasite cultures of >1% parasitemia were diluted to 1% parasitemia and 2% hematocrit and 200 μL were transferred onto drug pre-dosed plates and incubated at 37 °C for 90 hours, [40]. Drug exposure was terminated by freezing the drug plates at −80 °C for 24 hours after which lysis buffer containing (per liter) 100 mM Tris-HCl, 10 mM EDTA, 0.016% Saponin, 1.6% triton X-100 and 20X SYBR Green I dye was added and the sample incubated for 2 hours in the dark. Relative fluorescence units (RFU) were read using the Perkin Elmer Wallac 1420 fluorescence plate reader, with excitation and emission wavelengths of 485 nm and 535 nm respectively. The readouts values were aligned with corresponding drug doses and analysis performed by Graph-pad Prism software. The drug concentrations (x value) were transformed using X = Log[X] and plotted against the counts (y values) and the data analysed by non-linear regression (sigmoid dose-response/variable slope equation) to yield the IC50.

CQ resistant PfW2 strain = test: SYBR Green I growth inhibition assay, P. falciparum W2 culture; type: cell-based; conditions: Plasmodium falciparum
Excerpt: as §1
as §2, with “Drug exposure was terminated by freezing the drug plates at −80 °C for 24 hours after which lysis buffer containing (per liter) 100 mM Tris-HCl, 10 mM EDTA, 0.016% Saponin, 1.6% triton X-100 and 20X SYBR Green I dye was added and the sample incubated for 2 hours in the dark.” left out

[2] = test system: synchronized Pf3D7 strain cultures (rings, trophozoites); test: Stage-specificity and parasitemia titres on synchronized Pf3D7 cultures (Giemsa smears); type: cell-based, Plasmodium falciparum; conditions: for effect on ring stage parasitemia: 6 hours post exposure of ring stages; for effect on ring stage parasitemia / effect on mature blood stage parasite titres (parasitemia): Fig. 5; for effect on mature blood stage parasite titres (parasitemia): 16 hours after incubation with trophozoite stage; for effect on progression from trophozoites to schizonts / schizont morphology: concentration = individual IC50, up to 16 hours exposure; for effect on ring-stage growth and morphology: newly synchronized rings, concentration = individual IC50, monitored at 6 and 12 hours
Protocol: Next, we sought to determine stage-specificity of the antiplasmodial activity of the four active analogues (6a, 6h, 6m and 6u) on synchronized Pf3D7 strain cultures at 2% hematocrit and 1% parasitemia, with concentrations corresponding to individual drug IC50. To determine the effect of the compounds on both early and late ring stage parasites, the treatment was conducted on newly synchronized rings for 12 hours, and drug effect on parasite growth and morphology was monitored at 6 and 12 hours after exposure. Similarly, early trophozoites were exposed to each compound and incubated for 16 hours, and monitored at 6 and 16 hours post-exposure. The effect of the compounds on parasite morphology and development was compared in exposed and unexposed drug wells (Figs 3 and 4).
Figure 5 Effect of Pht analogues on parasite growth titres (Note: Graphical description of the inhibitory effect of select analogues on parasite growth titres 6 hours after incubation with ring-stages and 16 hours after drug incubation with trophozoite stage. Parasitemia percentage was derived by counting the number of infected erythrocytes from a total of 2,000 erythrocytes on Giemsa stained thin smears from each experiment. Bar diagrams represent the average of three different experiments).

[3] = Pf3D7, asynchronous culture, read-out: IC50 (SE) µM
[4] = Plasmodium falciparum, 3D7, Pf3D7, asynchronous culture, read-out: IC50 (SE) µg/mL

In the case of `CC[C@@H](C)[C@H](c1nc2ccccc2n1Cc1cn(-c2ccc(F)cc2)nn1)N1C(=O)c2ccccc2C1=O` [Compound 6h], the IC50 ([1]; Pf3D7, asynchronous culture, listed as 6 h, read-out: IC50 (SE) µM) is reported as less than 5.14 µM, the IC50 [1, 3] is reported as 0.9 µM and the IC50 [1, 4] is reported as 0.7 µg/mL. The IC50 (CQ resistant PfW2 strain) was 1300 nM, the “effect on ring stage parasitemia” value [2] was “did not affect parasite growth” and the “effect on mature blood stage parasite titres (parasitemia)” value [2] was “reduction in parasitemia”. For the same compound, the effect on trophozoites ([2]; early trophozoites, concentration = individual IC50, 6 hours after exposure) was “complete destruction of trophozoites”, the “effect on progression from trophozoites to schizonts / schizont morphology” value ([2]; early trophozoites) was “presence of schizonts with abnormal morphology” and the “effect on ring-stage growth and morphology” value [2] was “did not arrest ring-stage maturation”.

`CC(C)C[C@H](c1nc2ccccc2n1Cc1c[nH]nn1)N1C(=O)c2ccccc2C1=O` [Compound 6u] was tested, and the IC50 ([1]; Pf3D7, asynchronous culture, listed as 6 u, read-out: IC50 (SE) µM) was less than 5.14 µM, the IC50 [1, 3] was 0.7 µM and the IC50 [1, 4] was 0.3 µg/mL. For the same compound, the IC50 (CQ resistant PfW2 strain) was 900 nM, the “effect on ring stage parasitemia” value [2] was “reduction in ring stage parasitemia” and the “effect on mature blood stage parasite titres (parasitemia)” value [2] was “negligible”. The “effect on progression from trophozoites to schizonts / schizont morphology” value ([2]; early trophozoites) was “did not interfere with development of parasite progression from trophozoites to schizonts” and the “effect on ring-stage growth and morphology” value [2] was “active against ring-stage forms”.
